Measured values taken from patent US4885309A, “Therapeutic treatment of leukotriene-mediated dermal inflammation by topical administration of 3,4-dihydro-2H-1-benzopyran derivatives” (Hoffmann-La Roche Inc., priority 1986, dated 1989).

What was measured:
[1] = test system: leukotriene-induced vascular permeability; test: Inhibition of leukotriene (LTD4)-induced vascular permeability by topical test compound, rats; type: in vivo, male rats (Sprague-Dawley strain); details: for % Inhibition (± S.E.M.): rat, topical 4 hours prior to LTD4 injection
Description: (§1) The test compound was administered to the same number of animals as before by applying one drop (50 microliters) directly on the skin surface of a 10% by weight solution of the test compound in dimethylsulfoxide (DMSO). This amounted to 5 mg of test compound per site of application. […] Evans blue dye (0.5% in saline) was then injected intravenously into each animal, using the same procedure describd for Part (a), above. After thirty minutes the animals were sacrificed, the dorsal skins were removed, and the extent of dye migration was measured as above. The effectiveness of the test compound was calculated as the Percent (%) Inhibition of Leukotriene-Induced Permeability, as follows: [formula] where MWS=mean wheal size.

[2] = test system: arachidonic acid-induced ear edema; test: Mouse ear edema test (in vivo), arachidonic acid-induced; set-up: species or system CD-1 male mice; details: for % Inhibition (± S.E.M.): eight mice
Text: Dermatol. 80: 48 (1983), and Humes, Opas and Bonney, "Arachidonic Acid Metabolites in Mouse Ear Edema". Advances in Inflammation Research, 11: 57 (1986).
CD-1 male mice weighing 15 to 25 g were employed, and they were designated as follows: (1) Control Group, in which no arachidonic acid or test compound were to be applied, (2) Arachidonic Acid-Treated Group, in which no test compound was to be applied, and (3) Treated Group, in which the test compound was to be applied first, followed by the application of arachidonic acid. The test compound was again racemic-6-acetyl-7-[5-(4-acetyl-3-hydroxy-2-propylphenoxy)pentyloxy]-3,4-dihydro-2H-1-benzopyran-2-carboxylic acid.
In the case of the Group (3) animals, the test compound, dissolved in acetone, was applied to the dorsal surface of the right ear of the mouse with a 25-microliter pipettor, with the dose of the test compound being varied as shown in Tables 3 and 4. After 0.5 hour in some cases and 4 hours in others, the arachidonic acid was topically applied in the same manner as above to the pretreated ear areas. In each case of arachidonic acid application, an amount of 0.5 mg dissolved in 25 microliters of acetone was used. Application was made topically to the dorsal surface of the right ear with a 25-microliter pipettor. After one hour, the mice were sacrificed by carbon dioxide inhalation. A 6 mm-diameter standard biopsy punch was used to obtain a uniform tissue sample from the ear of each mouse so treated, and the tissue samples were weighed to the nearest 0.1 mg. The percent inhibition of ear edema formation was calculated as follows: [formula]

[3] = test system: leukotriene-induced vascular permeability; test: Inhibition of leukotriene (LTD4)-induced vascular permeability by topical test compound, guinea pigs; type: in vivo, male guinea pigs (Hartley strain); details: for % Inhibition (± S.E.M.): guinea pig, topical 4 hours prior to LTD4 injection
Description: as §1

CCCc1c(OCCCCCOc2cc3c(cc2C(C)=O)CCC(C(=O)O)O3)ccc(C(C)=O)c1O (racemic) [test compound, 6-acetyl-7-[5-(4-acetyl-3-hydroxy-2-propylphenoxy)pentyloxy]-3,4-dihydro-2H-1-benzopyran-2-carboxylic acid]
% Inhibition (± S.E.M.) ([1]; 2.5% in DMSO): 28 ± 4% | % Inhibition (± S.E.M.) ([1]; 5.0% in DMSO): 50 ± 6% | % Inhibition (± S.E.M.) ([1]; 10.0% in DMSO): 59 ± 6% | % Inhibition (± S.E.M.) ([1]; 25.0% in DMSO): 67 ± 5% | time of peak activity (inhibition of leukotriene-induced vascular permeability) ([1]; rats, relative to guinea pigs (2-4 hours), 5 mg per site (10% in DMSO) topical, LTD4 0.4 microgram per site): somewhat later | inhibition of leukotriene-induced vascular permeability ([1]; rats, 5 mg per site (10% in DMSO) topical, time variation): inhibited leukotriene-induced vascular permeability | inhibition of leukotriene-induced vascular permeability increase, variation of concentration ([1]; rats, topical 4 hours prior to leukotriene injection): inhibited the leukotriene-induced vascular permeability increase in a dose-related manner | % Inhibition (± S.E.M.) ([2]; 0.5 Hour Pretreatment, 0.1 mg applied topically in 25 μl acetone): 19 ± 10% | % Inhibition (± S.E.M.) ([2]; 0.5 Hour Pretreatment, 0.2 mg applied topically in 25 μl acetone): 21 ± 12% | % Inhibition (± S.E.M.) ([2]; 0.5 Hour Pretreatment, 0.5 mg applied topically in 25 μl acetone): 42 ± 12% | % Inhibition (± S.E.M.) ([2]; 0.5 Hour Pretreatment, 1.0 mg applied topically in 25 μl acetone): 63 ± 4% | % Inhibition (± S.E.M.) ([2]; 0.5 Hour Pretreatment, 2.0 mg applied topically in 25 μl acetone): 65 ± 1% | % Inhibition (± S.E.M.) ([2]; 4 Hour Pretreatment, 0.1 mg applied topically in 25 μl acetone): 26 ± 9% | % Inhibition (± S.E.M.) ([2]; 4 Hour Pretreatment, 0.2 mg applied topically in 25 μl acetone): 31 ± 12% | % Inhibition (± S.E.M.) ([2]; 4 Hour Pretreatment, 0.5 mg applied topically in 25 μl acetone): 28 ± 9% | % Inhibition (± S.E.M.) ([2]; 4 Hour Pretreatment, 1.0 mg applied topically in 25 μl acetone): 37 ± 7% | % Inhibition (± S.E.M.) ([2]; 4 Hour Pretreatment, 2.0 mg applied topically in 25 μl acetone): 68 ± 7% | inhibition of edema ([2]; amounts up to 2 mg, both 0.5 and 4 hours prior to arachidonic acid application): significant inhibition of edema | % Inhibition (± S.E.M.) ([3]; 5.0% in DMSO): 11 ± 3% | % Inhibition (± S.E.M.) ([3]; 10.0% in DMSO): 33 ± 3% | % Inhibition (± S.E.M.) ([3]; 15.0% in DMSO): 43 ± 4% | % Inhibition (± S.E.M.) ([3]; 25.0% in DMSO): 49 ± 4% | inhibition of leukotriene-induced vascular permeability ([3]; guinea pigs, 5 mg per site (10% in DMSO) topical, time variation): inhibited leukotriene-induced vascular permeability | time of peak activity (inhibition of leukotriene-induced vascular permeability) ([3]; guinea pigs, 5 mg per site (10% in DMSO) topical, LTD4 0.4 microgram per site): 2 to 4 h | inhibition of leukotriene-induced vascular permeability increase, variation of concentration ([3]; guinea pigs, topical 4 hours prior to leukotriene injection): inhibited the leukotriene-induced vascular permeability increase in a dose-related manner
